The target in the data set is ATP-dependent translocase ABCB1 (Mus musculus, UniProt P21447). Kind of data set: TP_TRANSPORTER: Western in vivo, brain of ddY mouse. Type of data set: functional, organism-based.
Chain of ATP-dependent translocase ABCB1 (P21447 whole entry): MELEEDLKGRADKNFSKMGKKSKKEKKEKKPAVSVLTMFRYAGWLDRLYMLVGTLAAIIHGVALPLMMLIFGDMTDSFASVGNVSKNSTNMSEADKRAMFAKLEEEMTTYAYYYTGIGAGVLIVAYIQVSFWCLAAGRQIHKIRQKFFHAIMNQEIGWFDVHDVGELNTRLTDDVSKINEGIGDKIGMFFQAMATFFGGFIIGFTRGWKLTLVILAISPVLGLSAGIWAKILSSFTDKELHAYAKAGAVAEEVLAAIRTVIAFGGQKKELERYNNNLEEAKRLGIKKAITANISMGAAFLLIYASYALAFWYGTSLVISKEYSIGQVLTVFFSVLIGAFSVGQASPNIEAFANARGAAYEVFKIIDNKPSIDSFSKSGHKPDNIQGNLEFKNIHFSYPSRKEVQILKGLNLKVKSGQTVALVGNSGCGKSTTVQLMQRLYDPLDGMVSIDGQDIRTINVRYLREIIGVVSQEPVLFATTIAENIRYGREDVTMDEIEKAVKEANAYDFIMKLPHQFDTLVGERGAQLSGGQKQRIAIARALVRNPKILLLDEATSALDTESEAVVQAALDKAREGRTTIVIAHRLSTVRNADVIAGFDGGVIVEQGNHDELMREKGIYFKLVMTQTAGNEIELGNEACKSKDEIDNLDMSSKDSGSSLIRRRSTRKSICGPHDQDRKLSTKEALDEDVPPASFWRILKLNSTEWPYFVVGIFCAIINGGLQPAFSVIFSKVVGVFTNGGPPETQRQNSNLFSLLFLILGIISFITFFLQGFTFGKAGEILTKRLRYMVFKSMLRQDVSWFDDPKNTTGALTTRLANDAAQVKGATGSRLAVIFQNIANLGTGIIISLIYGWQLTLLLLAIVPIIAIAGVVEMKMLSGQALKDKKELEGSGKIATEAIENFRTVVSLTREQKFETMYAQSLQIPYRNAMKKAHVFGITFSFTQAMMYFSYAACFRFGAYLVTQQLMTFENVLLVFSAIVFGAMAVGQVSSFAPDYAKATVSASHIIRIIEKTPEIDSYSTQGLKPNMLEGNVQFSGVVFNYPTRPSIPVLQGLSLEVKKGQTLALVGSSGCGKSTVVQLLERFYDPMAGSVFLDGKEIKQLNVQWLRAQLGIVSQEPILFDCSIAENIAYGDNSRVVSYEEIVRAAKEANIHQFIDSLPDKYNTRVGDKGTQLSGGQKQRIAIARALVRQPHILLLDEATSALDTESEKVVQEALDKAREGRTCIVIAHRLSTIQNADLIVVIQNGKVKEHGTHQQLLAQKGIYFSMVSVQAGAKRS

Turning to `CCCCCCCCCCCCCC(=O)OC(CCCCCCCCCCC)CC(=O)OC1C(NC(=O)CC(CCCCCCCCCCC)OC(=O)CCCCCCCCCCC)C(OC2CC(OC(=O)CC(O)CCCCCCCCCCC)C(NC(=O)CC(O)CCCCCCCCCCC)C(O)O2)OC(CO)C1OP(=O)(O)O` (stereo unspecified), the Activity entry was “inducer [Decrease]”.

Values taken from ChEMBL document CHEMBL2074301, “Effect of endotoxin on doxorubicin transport across blood-brain barrier and P-glycoprotein function in mice” (Eur J Pharmacol, 2002).
